Experiments:
[1] = tested on: G-quadruplex in promoter region of the c-myc gene (NHE III1 segment); experiment: Dual luciferase analysis with plasmid pGL4.10-myc (luc2) in HGC-27 cells; format: cell-based, human; conditions: for inhibition at 50 µM / activity at 50 µM: Homo sapiens; for inhibition at 50 µM: HGC-27, text summary of tab. 5 (50 μmol·l^−1), read-out: inhibition of expression of firefly luciferase as compared to control; for activity at 50 µM: helquat 50 μmol · l^−1, HGC-27, firefly normalized to Renilla, 24 hours after transfection, read-out: luciferase expression relative to control (control = 100%); for Quantification of expression relative to control (%): control = 100%
Method in brief: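 HGC-27 cells were co-transfected 1:1 with pGL4.10-myc (luc2), whose firefly luciferase is driven by an 860 bp c-myc regulatory region containing the G-quadruplex-forming NHE III1 segment, and pRL-TK Renilla control, using X-tremeGENE HP DNA in OptiMEM. Compounds were added two hours post-transfection; luminescence read 24 hours after transfection was Renilla-normalized and expressed relative to control.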

[2] = tested on: G-quadruplex oligonucleotide F21T (human telomere); experiment: FRET melting of G-quadruplex oligonucleotide F21T with ligands; format: binding; conditions: for ΔTm (° C.) F21T/ds26: helquat 1 μmol·l^−1, oligonucleotide 0.2 μmol·l^−1, 50-fold excess of double-stranded competitor ds26; for ΔTm (° C.) F21T: helquat 1 μmol·l^−1, oligonucleotide 0.2 μmol·l^−1, without competitor
Source text: To determine the degree of in vitro interactions of helquats with G-quadruplex(es), the oligonucleotides containing the guanine-rich sequences of human telomere (F21T) and NHE III1 promoter region of c-myc oncogene (Fmyc27T) were used. Both oligonucleotides capable of forming an intramolecular G-quadruplex were end-labeled with suitable fluorophores so as to form donor-acceptor FRET pair (5′-FAM and 3′-TAMRA). If the oligonucleotide is folded into the structure of the G-quadruplex, donor is in close proximity of acceptor and radiationless energy transfer to the acceptor occurs. With increasing temperature of the reaction mixture G-quadruplex structure gradually denatures and thus the donor and acceptor (FAM-TAMRA) drift apart. This leads to an increase in fluorescence of donor (FAM) and a decrease in fluorescence of acceptor (TAMRA).
The result of measurement is the curve of dependence of the intensity of fluorescence of the donor on the temperature. If the G-quadruplex is stabilized by ligand, melting temperature will increase. Melting temperature of G-quadruplex corresponds to the temperature when 50% of the original amount of the folded G-quadruplex is denatured. The measurement outcome is the difference in the melting temperatures (ΔTm) of the G-quadruplex alone and the G-quadruplex stabilized by ligand. In case of Fmyc27T experiments were performed in cacodylate buffer (10 mmol·l^−1, pH=7.2) with KCl (5 mmol·l^−1) and LiCl (95 mmol·l^−1) oligonucleotide and in case of F21T oligonucleotide in cacodylate buffer (10 mmol·l^−1, pH=7.2) with KCl (25 mmol·l^−1) and LiCl (75 mmol·l^−1).
Both oligonucleotides were denatured for 5 minutes at 95° C. and subsequently allowed to cool to room temperature (3 hours) in the switched-off thermoblock. The final oligonucleotide concentration in the reaction mixture was 0.2 μmol·l^−1. Test helquats were present at concentrations of 1 μmol·l^−1. The total reaction volume was 30 μl. The melting temperature of the oligonucleotides alone (without the presence of helquats) under these conditions was 58.1±0.2° C. for F21T and 64.7±0.4° C. for Fmyc27T. For determining the selectivity of binding of helquats to G-quadruplex in comparison with the double-stranded DNA, 50-fold excess of double-stranded DNA ([…] unlabeled competitor ds26 forming a hairpin) is added to the reaction mixture. After the addition to the reaction mixture ds26 competes with labeled oligonucleotide (Fmyc27T or F21T) for ligand binding. […] Melting temperature of oligonucleotides alone in the presence of the competitor is 59.4±0.5° C. for F21T and 66.3° C.±0.6° C. for Fmyc27T.
Fluorescence of FAM donor was measured using real-time PCR apparatus Opticon 2 (excitation 470-505 nm and emission 523-543 nm) in temperature increments of 0.5° C. in the range 25 to 95° C. Evaluation of the sigmoid curves of fluorescence intensity dependent on the temperature were performed in GraphPad Prism 5 (GraphPad Software, Inc., USA). Using nonlinear five parametric regression the inflection point on the curve was calculated that corresponds to the melting temperature (Tm) of the G-quadruplex under the given conditions. The values were obtained from at least three independent measurements.

SMILES | inhibition at 50 µM [1] | activity at 50 µM [1] | ΔTm (° C.) F21T/ds26 [2] | ΔTm (° C.) F21T [2] | Quantification of expression relative to control (%) ([1]; 10 μmol · l^−1) | Quantification of expression relative to control (%) ([1]; 50 μmol · l^−1) | Quantification of expression relative to control (%) ([1]; 150 μmol · l^−1)
O=[N+]([O-])c1cccc2[nH]cc(/C=C/c3cc[n+]4c(c3)-c3c(ccc5c3-c3cccc[n+]3CC5)CC4)c12 (racemic) [LSA-C9-32, (rac)-(E)-2-(2-(4-nitro-1H-indol-3-yl)vinyl)-6,7,10,11-tetrahydrodipyrido[2,1-a:1′,2′-k][2,9]phenanthroline-5,12-diium trifluoromethanesulfonate] | > 20% | 74% | 6.6 °C | 9.3 °C |  |  | 
Brc1ccc2[nH]cc(/C=C/c3cc4ccccc4[n+]4c3-c3c(ccc5c3-c3cccc[n+]3CCC5)CCC4)c2c1.O=S(=O)([O-])C(F)(F)F.O=S(=O)([O-])C(F)(F)F [MSC-C9-30, 19-((E)-2-(5-bromo-1H-indol-3-yl)vinyl)-6,7,8,11,12,13-hexahydropyrido[1′″,2′″:1″,2″]azepino[4″,3″:5′,6′]benzo[1′,2′:3,4]azepino[1,2-a]quinoline-5,14-diium trifluoromethanesulfonate] | > 20% | 68% |  |  |  |  | 
C(=C\c1cccc2c1oc1ccccc12)/c1cc[n+]2c(c1)-c1c(ccc3c1-c1c4ccccc4cc[n+]1CC3)CC2.O=S(=O)([O-])C(F)(F)F.O=S(=O)([O-])C(F)(F)F [MSB-C13-8, (E)-13-(2-(dibenzo[b,d]furan-4-yl)vinyl)-4,5,8,9-tetrahydroisoquinolino[1,2-a]pyrido[1,2-k][2,9]phenanthroline-3,10-diium trifluoromethanesulfonate] |  |  | 3.4 °C | 9.0 °C |  |  | 
Cc1c(C)c2c(c3c1CC[n+]1ccc(/C=C/c4cccc5c4oc4ccccc45)cc1-3)-c1c3ccccc3cc[n+]1CC2 (racemic) [MJA-C13-8, (rac)-(E)-13-(2-(dibenzo[b,d]furan-4-yl)vinyl)-6,7-dimethyl-4,5,8,9-tetrahydroisoquinolino[1,2-a]pyrido[1,2-k][2,9]phenanthroline-3,10-diium trifluoromethanesulfonate] | > 40% | 56% | 1.4 °C | 7.4 °C | 79.3 ± 6.7% | 69.8 ± 6.0% | 57.9 ± 2.5%
C(=C\c1c(-c2ccccc2)[nH]c2ccccc12)/c1cc2ccccc2[n+]2c1-c1c(ccc3c1-c1cccc[n+]1CCC3)CCC2.O=S(=O)([O-])C(F)(F)F.O=S(=O)([O-])C(F)(F)F [MSC-C15-8, 19-((E)-2-(2-phenyl-1H-indol-3-yl)vinyl)-6,7,8,11,12,13-hexahydropyrido[1′″,2′″:1″,2″]azepino[4″,3″:5′,6′]benzo[1′,2′:3,4]azepino[1,2-a]quinoline-5,14-diium trifluoromethanesulfonate] | > 20% | 76% |  |  |  |  | 
